Source: patent US20260109870A1, “PEPTIDE-BASED NON-CRYSTALLINE MATERIALS AND COMPOSITIONS AND PROCESSES FOR OBTAINING SAME” (Ramot at Tel-Aviv University Ltd., priority 2022, published 2026)
Read-outs that look alike come from different tables or passages of the source. Residues, ends and D or L forms follow the SMILES beside them.

Key:
[1] = in water; marked (literature); cited from earlier work
[2] = Solubility limit in water (gradual water addition, vortex, light microscopy)
Method: (§1) Each amino acid or peptide was weighed. Water was gradually added at room temperature and the solution was vortexed. After each addition of water, the solution was sampled and evaluated under light microscopy; this process was repeated until no visible particles were detected and the concentration was calculated and determined as the solubility limit of the peptide in water.

physchem = conditions: water
Method: as §1

| solubility [2] | SMILES | other results |
| --- | --- | --- |
|  | N[C@@H](Cc1ccccc1)C(=O)O [F, phenylalanine] | solubility [1]: 29.6 (literature) milligram/milliliter |
| < 1 mg/mL | N[C@@H](Cc1ccccc1)C(=O)N[C@@H](Cc1ccccc1)C(=O)N[C@@H](Cc1ccccc1)C(=O)O [FFF, reference compound] (H-Phe-Phe-Phe-OH) |  |
| > 250 mg/mL | N[C@@H](Cc1ccccc1)C(=O)N[C@@H](Cc1ccccc1)C(=O)N[C@@H](Cc1ccc(O)cc1)C(=O)O [FFY] (H-Phe-Phe-Tyr-OH) |  |
| < 5 mg/mL | N[C@@H](Cc1ccccc1)C(=O)N[C@@H](Cc1ccc(O)cc1)C(=O)N[C@@H](Cc1ccccc1)C(=O)O [FYF, reference compound] (H-Phe-Tyr-Phe-OH) |  |
| > 1000 mg/mL | N[C@@H](Cc1ccccc1)C(=O)N[C@@H](Cc1ccc(O)cc1)C(=O)N[C@@H](Cc1ccc(O)cc1)C(=O)O [FYY] (H-Phe-Tyr-Tyr-OH) |  |
| > 1000 mg/mL | N[C@@H](Cc1ccccc1)C(=O)N[C@@H](Cc1ccc(O)cc1)C(=O)O [FY] (H-Phe-Tyr-OH) |  |
|  | N[C@@H](Cc1ccc(O)cc1)C(=O)N[C@@H](Cc1ccccc1)C(=O)O [YF] (H-Tyr-Phe-OH) | solubility (physchem): > 1000 mg/mL |
|  | N[C@@H](Cc1ccc(O)cc1)C(=O)N[C@@H](Cc1ccc(O)cc1)C(=O)O [YY] (H-Tyr-Tyr-OH) | solubility (physchem): > 1000 mg/mL |

| SMILES | solubility [2] | other results |
| --- | --- | --- |
| N[C@@H](Cc1ccc(O)cc1)C(=O)N[C@@H](Cc1ccccc1)C(=O)N[C@@H](Cc1ccccc1)C(=O)O [YFF] (H-Tyr-Phe-Phe-OH) | > 250 mg/mL |  |
| N[C@@H](Cc1ccc(O)cc1)C(=O)N[C@@H](Cc1ccccc1)C(=O)N[C@@H](Cc1ccc(O)cc1)C(=O)O [YFY] (H-Tyr-Phe-Tyr-OH) | > 1000 mg/mL |  |
| N[C@@H](Cc1ccc(O)cc1)C(=O)N[C@@H](Cc1ccc(O)cc1)C(=O)N[C@@H](Cc1ccccc1)C(=O)O [YYF] (H-Tyr-Tyr-Phe-OH) | > 1000 mg/mL |  |
| N[C@@H](Cc1ccc(O)cc1)C(=O)N[C@@H](Cc1ccc(O)cc1)C(=O)N[C@@H](Cc1ccc(O)cc1)C(=O)O [YYY, Tyr-Tyr-Tyr] (H-Tyr-Tyr-Tyr-OH) | > 1000 mg/mL |  |
